Experimental findings from article PMC10609854 (Pharmaceuticals, 2023) are described below.

In one assay the test system is formalin-induced pain. As to the kind of experiment: formalin test. To be noted: mice; for duration of the nociceptive response, acute phase of the formalin test: i.p. 30 min before test, 0–5 min after formalin; for influence on the analgesic effect of E153, late phase of the formalin test: 15 mg/kg given 10 min before E153 (15 mg/kg i.p.); for duration of the nociceptive response, late phase of the formalin test: single administration alone, 15 mg/kg. The class given is in vivo, mice. The protocol:
The mice received an intraperitoneal (i.p.) injection of either the test compound or a control solution. After 30 min, a 20 μL injection of a 2.5% formalin solution was administered into the right hind paw. Right after the formalin injection, the animals were individually placed into glass containers and observed for the following 30 min. During specific time intervals (0–5 min, referred to as Phase I, and 15–30 min, referred to as Phase II, post-formalin injection), the time spent by the animals licking or biting the injected paw was recorded..

Assay [1] concerns histamine-induced pruritus. As to the kind of experiment: histamine-induced pruritus. Type of assay: in vivo. To be noted: mice; for influence on the antipruritic activity of E153, histamine-induced pruritus: 15 mg/kg given 10 min before E153 (5 mg/kg i.p.). The method, then: (§1) The area (around 2 cm^2) of the nape of mice was shaved at least 2 days prior to experiments. On the day of the experiment, each mouse was individually placed in plastic chambers (15 × 15 × 30 cm). After the 30 min period of habituation, the mice received an intradermal (i.d.) injection of histamine dihydrochloride (10 µmol/site), chloroquine (CQ, 200 µg/site), or SLIGRL-NH2 (40 nmol/site), which were dissolved in physiological saline and administrated at the constant volume of 20 μL. Immediately following the injection, scratching (series of movements considered as a single scratching bout usually consisted of three single scratches) of the injected site by the hind paw was counted for 60 min, 30 min, or 45 min after histamine, CQ, and SLIGRL-NH2 injection, respectively.

Another assay concerns CQ-induced pruritus. Kind of assay: chloroquine (CQ)-induced pruritus. Type of assay: in vivo, mice. To be noted: mice, 10 mg/kg i.p.; 30 min observation. The method, then: as §1
For a further assay, the system named is SLIGRL-induced pruritus. Kind of assay: SLIGRL-induced pruritus. The class given is in vivo. To be noted: mice, 10 mg/kg i.p.; 45 min observation. The protocol:
as §1

Counter-ions that a name gives are not always drawn.

Take `Cc1cc(OCCN2CCOCC2)nn1-c1ccc2ccccc2c1.Cl` [Compound S1RA, 4-[2-[[5-methyl-1-(2-naphthalenyl)1H-pyraol-3-yl]oxy]ethyl]-morpholine hydro-chloride]: the “activity in the late phase of the formalin test” value in the assay with formalin-induced pain (15 mg/kg i.p.) was “inactive”. In the assay on formalin-induced pain (30 mg/kg i.p.), the “paw licking and biting behavior, late phase of the formalin test” value is “showed activity”. Also, the “nociceptive response, late phase of the formalin test, joint administration” value with formalin-induced pain (JNJ 5207852 10 mg/kg + S1RA 30 mg/kg i.p.) was “did not affect the activity of the compounds”. In the assay on formalin-induced pain, the “duration of the nociceptive response, acute phase of the formalin test” value is “lack of activity”.
On to `c1cc(OCCCN2CCCCC2)ccc1CN1CCCCC1` [JNJ 5207852, 1-[3-[4-(1-piperidinylmethyl)phenoxy]propyl]piperidine hydrochloride], for which the “activity in the late phase of the formalin test” value in the assay with formalin-induced pain (10 mg/kg i.p.) was “inactive”. Moreover, in the assay on formalin-induced pain (15 and 30 mg/kg i.p.), the “paw licking and biting behavior, late phase of the formalin test” value is listed as “significantly attenuated”. The “nociceptive response, late phase of the formalin test, joint administration” value in the assay with formalin-induced pain (JNJ 5207852 15 mg/kg + S1RA 15 mg/kg i.p., compared to saline) is reported as “significantly stronger decrease in nociceptive response”. Moreover, the “duration of the nociceptive response, acute phase of the formalin test” value with formalin-induced pain is given as “lack of activity”.
Consider `Cl.O=C(OCCN1CCOCC1)C1(c2ccccc2)CCCCC1` [PRE-084, 2-[4-morpholinethyl]1-phenylcyclohexanecarboxylate hydrochloride], for which, in the assay on formalin-induced pain, the “influence on the analgesic effect of E153, late phase of the formalin test” value is “antagonized the effects of test compound” and the “duration of the nociceptive response, late phase of the formalin test” value was “did not change”. In assay [1], the “influence on the antipruritic activity of E153, histamine-induced pruritus” value is “significant decrease in E153 activity”. Further, the “scratching behavior, histamine-induced pruritus” value (shortened to “scratching behavior”) in assay [1] (administered alone, 15 mg/kg) is listed as “did not alter animal scratching behavior”.
As for `C[C@@H](N)Cc1c[nH]cn1` [RAMH, (R)-(-)-α-methylhistamine], in the assay with formalin-induced pain, the “influence on the analgesic effect of E153, late phase of the formalin test” value is listed as “antagonized the effects of test compound” and the “duration of the nociceptive response, late phase of the formalin test” value was “did not change”. The “influence on the antipruritic activity of E153, histamine-induced pruritus” value in assay [1] is “had no effect”. Moreover, the “scratching behavior” value in assay [1] (administered alone, 15 mg/kg) is listed as “did not alter animal scratching behavior”.
Consider `COc1ccc(CN(CCN(C)C)c2ccccn2)cc1` [pyrilamine, reference compound], for which, in assay [1] (i.p. 30 min before i.d. histamine), the “scratching behavior” value is “significantly reduced scratching behavior”. In addition, the “number of scratch bouts, CQ-induced pruritus” value with CQ-induced pruritus is “not effective”. Also, the “scratch bouts, SLIGRL-induced pruritus” value in the assay with SLIGRL-induced pruritus is recorded as “not effective”.
